Source: patent US20250290117A1, “MOLECULAR PHENOTYPIC ANTIMICROBIAL SUSCEPTIBILITY TESTING” (priority 2024, published 2025)

What was measured:
[1] = tested on: Acinetobacter baumannii; experiment: Molecular phenotypic antimicrobial susceptibility test (extraction/DNA purification prior to PCR); assay type: cell-based
Protocol: Detection of Molecular Phenotypic Antimicrobial Susceptibility. Disclosed herein are the methods for the detection of phenotypic antimicrobial susceptibility via molecular methods. The present invention describes how a specimen 100 with a known microbial load is incubated and then exposed to a panel of antimicrobial agents to determine sensitivity (prevention of growth) or resistance (allowance of growth) to the specific antimicrobial agents tested utilizing molecular methods. Sample Collection. Specimens 100 are collected from patients using sterile collection processes that are employed in routine clinical care. Specimens are transported to the testing facility in boric acid preservative. […] The specimens 100 are put through a pathogen identification process using PCR technology (e.g., using the first sample 104). The process for pathogen isolation includes steps of harvesting the pathogen (e.g., via centrifugation), isolating pathogen DNA via a DNA isolation and/or purification kit, and performing PCR on the pathogen DNA via PCR components (e.g., primers, enzymes, buffers) as would be known to the skilled artisan. Simultaneously, an additional aliquot of the same specimen (e.g., the second sample 108) is placed with liquid culture media and incubated for 4-6 hours. This aliquot is used for antimicrobial susceptibility testing if indicated based on the pathogen detection results. […] Specimens 100 with lower pathogen loads could also be utilized in the antibiotic susceptibility phase of testing with or without a longer incubation period. […] Antimicrobial solutions are prepared at known concentrations. The specific antimicrobials and their concentrations are selected based on the pathogen of interest and the described antimicrobial resistance breakpoints for that specimen pathogen and antimicrobial combination. These antimicrobials have been selected based on those commonly utilized by healthcare providers in routine clinical care for the specific type of suspected infection. The number and types of antimicrobials utilized can be customized based on the infection source, pathogen detected, patient-specific factors such as allergies or other health conditions (e.g., chronic kidney disease or concurrent medication use), or healthcare provider preferences such as antimicrobial availability or cost. The antimicrobial solutions are prepared in liquid culture media (such as Muller Hinton Broth) to achieve the desired antimicrobial concentration and are then stored at −80° C. until use. For a given specimen, each antimicrobial is tested at a single or multiple antimicrobial concentration(s) which is its established breakpoints for sensitivity. The antimicrobial solutions are prepared and plated out for each specific pathogen. This allows ease of use on the day of testing after defrosting the plate 112. Table 1, which illustrates the results of molecular phenotypic antimicrobial susceptibility testing when more than one organism is present in the source specimen, provides an example of an antimicrobial plate 112 prepared for this purpose. Of note, control wells containing only culture media are present on all plates 112. This allows for evaluation of pathogen load when no antimicrobial is present. Specimen Exposure to Antimicrobial Agents. The 1 mL aliquot of the specimen 100 previously mixed with culture media and incubated is obtained. Using optical density measurements as a guide, the specimen 100 is diluted to 0.5 McFarland. The specimen 100 is then placed into the previously prepared antimicrobial susceptibility testing plate 112. Each plate 112 is prepared for a single specimen 100 for a specified pathogen based on its detection. For example, if the specimen 100 has more than one pathogen detected that needs different antimicrobial concentrations for exposure due to different minimum inhibitory concentration breakpoints for one or more organisms, then more than one antimicrobial exposure plate 112 may be needed. […]

[2] = tested on: S. aureus; experiment: Traditional culture-based antimicrobial susceptibility test; assay type: cell-based, Staphylococcus aureus; conditions: S. aureus isolate NR-46412 HIP13170
Protocol: (§1) Table 5 illustrates the results of an example antimicrobial agent susceptibility test of the current application versus a traditional culture-based antimicrobial agent susceptibility test for multiple specimens with different pathogens, in accordance with one or more embodiments of the disclosure. These specimens were tested with direct PCR (e.g., no extraction DNA purification step prior to PCR). As in Tables 1, 2, and 3, the results of the test of the current application are similar to the results from the traditional test.
(§2) Result Reporting to Healthcare Providers. The results from the antimicrobial exposure are reported to the ordering healthcare provider. This information can be utilized by the healthcare provider when selecting an antimicrobial regimen for their individual patient based on these individual specimen results and patient specific factors. […] The current standard of care for antimicrobial susceptibility testing involves the growth, isolation, and exposure of pathogens to antimicrobials. This traditional culture and sensitivity process can take multiple days to obtain results, limiting the ability of healthcare providers to receive timely results to make actionable changes in patient care or management. Healthcare providers desire a method to obtain antimicrobial susceptibility results with quicker turn-around-time. This application discloses a molecular-based phenotypic antimicrobial susceptibility method which involves pathogen exposure to a panel of antimicrobial agents at their specified minimum inhibitory concentration breakpoints for sensitivity. This method allows for more timely antimicrobial susceptibility results.

[3] = tested on: P. aeruginosa; experiment: as above; assay type: cell-based, Pseudomonas aeruginosa; conditions: P. aeruginosa isolate MRSN1938
Protocol: as §1, §2

O=C(O)c1cn(C2CC2)c2cc(N3CCNCC3)c(F)cc2c1=O [Ciprofloxacin]
Ct at Sensitive Breakpoint ([1]; A. baumannii isolate 1, Ct at control (average) 18.811): 16.306
Molecular Antimicrobial Susceptibility Result ([1]; A. baumannii isolate 1, at sensitive breakpoint): Resistant
Ct at Sensitive Breakpoint ([1]; A. baumannii isolate 2, Ct at control (average) 18.763): 19.471
Molecular Antimicrobial Susceptibility Result ([1]; A. baumannii isolate 2, at sensitive breakpoint): Resistant
Ct at Sensitive Breakpoint ([1]; A. baumannii isolate 3, Ct at control (average) 18.799): 17.802
Molecular Antimicrobial Susceptibility Result ([1]; A. baumannii isolate 3, at sensitive breakpoint): Resistant
Ct at Sensitive Breakpoint ([1]; A. baumannii isolate 4, Ct at control (average) 18.061): 18.101
Molecular Antimicrobial Susceptibility Result ([1]; A. baumannii isolate 4, at sensitive breakpoint): Resistant
Ct at Sensitive Breakpoint ([1]; A. baumannii isolate 5, Ct at control (average) 18.191): 18.773
Molecular Antimicrobial Susceptibility Result ([1]; A. baumannii isolate 5, at sensitive breakpoint): Resistant
Traditional Culture Result [2]: Resistant
Traditional Culture Result [3]: Resistant
